# Measurements taken from the supplement of paper PMC10307832.
# What was measured:
# Assay in all cases: relative viability (nuclei count vs DMSO), 5 days (fraction); higher = more cells survive
# [1] = compound: Nc1ncn([C@H]2C[C@H](O)[C@@H](CO)O2)c(=O)n1 [Decitabine] + C[C@]1(O)C[C@@H](c2nc(-c3ccc4ccc(-c5ccccc5)nc4c3)c3c(N)nccn32)C1 [Linsitinib] (partner 1 µM)
# Method in brief: (§1)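 Relative viability was taken as the ratio of nuclei in treated wells to nuclei in vehicle wells. Lung cancer cell lines in 1536-well plates received compounds by pin tool one day after seeding, either one drug alone or a fixed anchor-drug dose plus five library-drug doses (not always all listed) in √10 steps. Nuclei were counted on 4× images after 5 days of treatment, and values are medians of duplicate plates.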
# [2] = compound: O=C(C[C@H]1NCCC[C@@H]1O)Cn1cnc2cc(Br)c(Cl)cc2c1=O (racemic) [Halofuginone] + O=C(CCCCCCC(=O)Nc1ccccc1)NO [Vorinostat] (partner 1 µM)
# Method in brief: as §1
# [3] = compound: O=C(C[C@H]1NCCC[C@@H]1O)Cn1cnc2cc(Br)c(Cl)cc2c1=O (racemic) [Halofuginone] + COc1cccc2cc(-c3nc([C@H]4CC[C@H](C(=O)O)CC4)n4ncnc(N)c34)[nH]c12 [OSI-027] (partner 0.5 µM)
# Method in brief: as §1
# [4] = compound: COc1cc2c(Oc3ccc4[nH]c(C)cc4c3F)ncnc2cc1OCCCN1CCCC1 [Cediranib] + CC(=O)Nc1cccc(-n2c(=O)n(C3CC3)c(=O)c3c(Nc4ccc(I)cc4F)n(C)c(=O)c(C)c32)c1 [Trametinib] (partner 0.02 µM)
# Method in brief: as §1
Cell Line,relative viability ([1]; first compound 0.04 µM),relative viability ([1]; first compound 0.1265 µM),relative viability ([1]; first compound 0.4 µM),relative viability ([1]; first compound 1.265 µM),relative viability ([1]; first compound 4 µM),relative viability ([2]; first compound 0.001 µM),relative viability ([2]; first compound 0.003162 µM),relative viability ([2]; first compound 0.01 µM),relative viability ([2]; first compound 0.03162 µM),relative viability ([2]; first compound 0.1 µM),relative viability ([3]; first compound 0.001 µM),relative viability ([3]; first compound 0.003162 µM),relative viability ([3]; first compound 0.01 µM),relative viability ([3]; first compound 0.03162 µM),relative viability ([3]; first compound 0.1 µM),relative viability ([4]; first compound 0.04 µM),relative viability ([4]; first compound 0.1265 µM),relative viability ([4]; first compound 0.4 µM),relative viability ([4]; first compound 1.265 µM),relative viability ([4]; first compound 4 µM)
NCI-H727,0.303,0.232,0.302,0.282,0.234,1.23,1.05,1.06,1.35,1.21,0.6,0.572,0.713,0.709,0.411,0.374,0.376,0.358,0.374,0.384
NCI-H358,0.87,0.822,0.521,0.272,0.293,0.79,0.702,0.634,0.233,0.109,0.972,0.836,0.664,0.267,0.107,0.148,0.156,0.123,0.106,0.131
NCI-H1437,0.894,0.771,0.385,0.259,0.233,0.965,0.886,0.772,0.747,0.501,0.905,0.933,0.871,0.847,0.717,0.521,0.449,0.509,0.625,0.621
NCI-H441,0.282,0.407,0.272,0.19,0.165,0.799,0.936,0.863,0.8,0.49,0.737,0.583,0.591,0.647,0.336,0.631,0.504,0.408,0.483,0.399
EMC-BAC-2,0.797,0.81,0.652,0.612,0.583,0.592,0.491,0.447,0.334,0.14,0.4,0.397,0.38,0.4,0.315,0.823,–,0.842,0.82,0.923
NCI-H647,0.989,0.874,0.759,0.234,0.237,0.833,0.499,0.489,0.453,0.103,0.654,0.623,0.618,0.715,0.334,0.48,0.428,0.441,0.515,0.491
CAL-12T,0.657,0.805,0.494,0.451,0.347,0.876,0.897,0.746,0.651,0.445,0.872,0.771,0.707,0.807,0.414,0.443,0.362,0.319,0.248,0.341
NCI-H1792,0.643,0.568,0.531,0.378,0.333,–,–,–,–,–,0.71,0.749,0.801,0.737,0.592,–,0.407,0.375,0.521,0.458
H3255,0.488,0.88,0.551,0.554,0.468,0.852,0.818,0.761,0.819,0.818,0.598,0.55,0.602,0.601,0.553,0.606,–,0.623,–,0.567
HCC-78,0.538,0.545,0.407,0.371,0.319,0.675,0.459,0.391,0.426,0.367,0.347,0.334,0.363,0.396,0.407,0.742,1.02,0.721,0.915,0.919
EBC-1,0.693,0.704,0.417,0.316,0.247,–,–,–,–,–,–,–,–,–,–,–,–,–,–,–
NCI-H2405,0.838,0.891,0.74,0.548,0.465,1.07,1.06,1.02,0.958,0.577,0.71,0.656,0.638,0.619,0.577,0.647,0.941,0.562,0.636,0.614
A549,0.535,0.731,0.554,0.299,0.151,–,–,–,–,–,–,–,–,–,–,–,–,–,–,–
NCI-H3122,1.01,1.01,0.941,0.788,0.711,0.924,1.13,0.938,1.01,1.06,0.894,1.05,0.867,0.943,0.384,0.226,–,0.218,0.242,0.282
NCI-H1563,1.33,1.21,1.41,1.23,1.17,–,–,–,–,–,0.859,0.735,0.837,0.612,0.527,–,–,–,–,–
HCC-44,0.686,0.644,0.495,0.292,0.351,1.15,1.14,1.17,1.2,1.05,0.505,0.613,0.444,0.379,0.202,1.2,0.907,1.1,1.05,1.07
PC-3 [JPC-3],–,0.8,0.676,0.64,0.607,0.84,0.769,0.693,0.929,0.683,0.798,0.804,0.75,0.76,0.736,0.69,–,0.681,0.708,0.662
NCI-H1993,0.767,0.745,0.763,0.718,0.659,1.1,0.852,0.809,0.0067,0.576,0.56,0.592,0.564,0.47,0.523,–,0.48,0.56,0.504,0.641
